Format in all cases: in vivo, rat
The test system of one assay is IL-6. Description: Serum IL-6 by ELISA in CHF-HKYd rats. The following applies: benazepril 0.5 mg/kg, gavage 4 weeks. The procedure: (§1) SPF SD male rats were anesthetized by intraperitoneal injection of 25% urethane (1,000 mg/kg). Cut off the skin tissue for about 1 cm, blunt away from bilateral neck muscles, separate and excise the bilateral thyroid glands, and the parathyroid glands were retained. The mixture of noradrenaline and normal saline (1:4,000) was used to stop intraoperative bleeding during the operation, the muscle and skin were sutured and 0.1% calcium gluconate solution was given postoperatively. On the 10th day after thyroidectomy, the rats were intraperitoneally injected with 0.02% doxorubicin hydrochloride (1 mL/100 g), twice a week for 3 weeks.
(§2) All rats were randomly divided into control group, model group, ESZWD low-dose (3.96 g/kg), medium-dose (7.92 g/kg), high-dose (15.84 g/kg) groups, and positive control group (benazepril, 0.5 mg/kg), with six rats in each group. The CHF-HKYd was established after 1 week of feeding. […] The state of rats was observed and the urine volume at 24 h was measured. The structure and function of rat heart were evaluated by doppler ultrasonography. Serum biomarkers including myocardial injury indicators NT-proBNP, angiotensinII (AngII), aldosterone (ALD), reactive oxygen species (ROS), superoxide dismutase (SOD), malondialdehyde (MDA), and tumor necrosis factor α (TNF-α) and interleukin 6 (IL-6) were detected by ELISA.

The subject of a further assay is CHF-HKYd rats. Description: Doppler echocardiography of cardiac function in CHF-HKYd rats. The following applies: benazepril 0.5 mg/kg by gavage for 4 weeks (positive control). The procedure: as §1
The general state of rats was observed: the basic criteria for the symptoms of HKYd were dark purple coating on the tongue, asthma, edema, fear of cold, emaciation, loose stools, sleepiness, hypotrichosis, etc. The urine volume of rats was measured: 1 week after the last injection, 24 h urine volume of rats in the normal and model group were collected in the metabolic cage, and the urine samples were frozen at −80°C. Evaluation of cardiac function in rats by Doppler echocardiography: After urine collection, the rats were anesthetized and fixed in the supine position. The precardiac area of the rats was depilated and the coupling agent was applied, a frequency of 12 MHz. M-mode ultrasound and pulsed Doppler ultrasound were used to detect diastolic interventricular septum (IVSD), left ventricular internal diastolic diameter (LVIDd), left ventricular posterior wall diastolic diameter (LVPWd), systolic interventricular septum (IVSs) and left ventricular internal systolic diameter (LVIDs), left ventricular posterior wall systolic diameter (LVPWs), stroke volume (SV), left ventricular ejection fraction (LVEF), left ventricular short-axis systolic fraction (FS), and the ratio of peak flow velocity between early and late mitral valve diastole (E/A) through the left ventricular macropinacoid of left sternal bone and four-chamber view. Neuroendocrine factor detection: After the echocardiography, 1 mL of blood was taken from the canthus of rats in each group, blood was placed in the water at 37°C for 1.5 h, centrifuged to obtain serum (3,000 rpm, 10 min), frozen at −80°C. The contents of serum NT-proBNP, T3, and T4 were detected by ELISA.
All rats were randomly divided into control group, model group, ESZWD low-dose (3.96 g/kg), medium-dose (7.92 g/kg), high-dose (15.84 g/kg) groups, and positive control group (benazepril, 0.5 mg/kg), with six rats in each group. The CHF-HKYd was established after 1 week of feeding. ESZWD and benazepril were administered by gavage separately for 4 weeks after successful modeling, except for the control group. Blood was collected for 5, 10, 20, 30, 45 min, 1, 2, 4, 6, 8, 12, and 24 h, standing for 2 h and centrifuged at 4°C, 3,500 rpm for 10 min, the supernatant was retained. The state of rats was observed and the urine volume at 24 h was measured. The structure and function of rat heart were evaluated by doppler ultrasonography. Serum biomarkers including myocardial injury indicators NT-proBNP, angiotensinII (AngII), aldosterone (ALD), reactive oxygen species (ROS), superoxide dismutase (SOD), malondialdehyde (MDA), and tumor necrosis factor α (TNF-α) and interleukin 6 (IL-6) were detected by ELISA.

A further assay has as its system TNF-α. As to the kind of experiment: Serum TNF-α by ELISA in CHF-HKYd rats. The note with it: benazepril 0.5 mg/kg, gavage 4 weeks. On the procedure:
as §1, §2

In another assay the test system is NT-proBNP. As to the kind of experiment: Serum NT-proBNP by ELISA in CHF-HKYd rats. The following applies: benazepril 0.5 mg/kg, gavage 4 weeks. The procedure:
as §1
The general state of rats was observed: the basic criteria for the symptoms of HKYd were dark purple coating on the tongue, asthma, edema, fear of cold, emaciation, loose stools, sleepiness, hypotrichosis, etc. The urine volume of rats was measured: 1 week after the last injection, 24 h urine volume of rats in the normal and model group were collected in the metabolic cage, and the urine samples were frozen at −80°C. Evaluation of cardiac function in rats by Doppler echocardiography: After urine collection, the rats were anesthetized and fixed in the supine position. The precardiac area of the rats was depilated and the coupling agent was applied, a frequency of 12 MHz. […] The contents of serum NT-proBNP, T3, and T4 were detected by ELISA. […]

The next assay relates to ALD. Description: Serum aldosterone (ALD) by ELISA in CHF-HKYd rats. The note with it: benazepril 0.5 mg/kg, gavage 4 weeks. On the procedure:
as §1, §2

The subject of another assay is AngII. As to the kind of experiment: Serum angiotensinII (AngII) by ELISA in CHF-HKYd rats. The following applies: benazepril 0.5 mg/kg, gavage 4 weeks. On the procedure: as §1, §2
Another assay relates to ROS. Description: Serum reactive oxygen species (ROS) by ELISA in CHF-HKYd rats. The following applies: benazepril 0.5 mg/kg, gavage 4 weeks. The procedure:
as §1, §2

In a further assay the test system is MDA. Description: Serum malondialdehyde (MDA) by ELISA in CHF-HKYd rats. The note with it: benazepril 0.5 mg/kg, gavage 4 weeks. On the procedure:
as §1, §2

Consider `CCOC(=O)[C@H](CCc1ccccc1)N[C@H]1CCc2ccccc2N(CC(=O)O)C1=O` [Benazepril, benazepril], for which the “serum IL-6 level vs model group” value in the assay with IL-6 was “significantly reduced”. In the assay on CHF-HKYd rats, this compound yielded an E/A of 1.794 ± 0.28, an FS of 60.31 ± 8.10 %, an IVSd of 1.800 ± 0.62 mm and an IVSs of 3.425 ± 0.88 mm. In addition, in the assay on CHF-HKYd rats, the LVEF is on record as 92.30 ± 4.09 %, the LVIDd worked out at 5.950 ± 1.28 mm, the LVIDs was determined as 2.350 ± 0.72 mm and the LVPWd is listed as 1.900 ± 0.67 mm. In the assay with CHF-HKYd rats, the LVPWs is given as 3.525 ± 0.79 mm and the SV was determined as 0.4950 ± 0.25 mL. The “serum TNF-α level vs model group” value in the assay with TNF-α is reported as “significantly reduced”. In addition, the “serum NT-proBNP level vs model group” value in the assay with NT-proBNP is given as “significantly reduced”. Moreover, the “serum ALD level vs model group” value with ALD is given as “significantly reduced”. Further, the “serum AngII level vs model group” value in the assay on AngII is “significantly reduced”. Moreover, the “serum ROS level vs model group” value in the assay on ROS is recorded as “significantly reduce”. Also, the “serum MDA level vs model group” value with MDA was “significantly reduce”.

For the origin of these results see paper PMC9515952, “Tentative exploration of pharmacodynamic substances: Pharmacological effects, chemical compositions, and multi-components pharmacokinetic characteristics of ESZWD in CHF-HKYd rats” (Frontiers in Cardiovascular Medicine, 2022).
